Laboratory results from patent US11173146B2, “Selective activators of the intermediate conductance CA2+activated K+ channel KCa3.1 and their methods of use” (The Regents of the University of California, priority 2014, dated 2021).
Where two headings read alike, the source gives them in different places.

Assays:
hNaV1.7 = molecular target: T1, hNaV1.7 (Homo sapiens, UniProt Q15858); assay: NaV1.7 current inhibition (CHO cells); format: cell-based
T1 construct: host or cells: CHO (division arrested)

mKV1.3 = molecular target: T2, mKV1.3 (Mus musculus, UniProt P16390); assay: KV1.3 current inhibition (L929 cells); format: cell-based
T2 construct: expressed in transfected cells; host or cells: L929
Excerpt: (§1) Cells, Cell lines and Clones. HEK-293 cells stably expressing hKCa2.1, rKCa2.2 and hKCa3.1 were obtained from Khaled Houamed (University of Chicago, Ill.) in 2002 and have been maintained in the Wulff laboratory at the University of California since then. The cloning of hKCa2.3 (19 CAG repeats) and hKCa3.1 has been previously described (Wulff et al., 2000). The hKCa2.3 clone was later stably expressed in COS-7 cells at Aurora Biosciences Corp., San Diego, Calif. […]
(§2) Electrophysiology. […] For manual experiments COS-7, HEK-293 or L929 cells were trypsinized, plated onto poly-L-lysine coated coverslips and typically recorded from between 20 min and 4 h after plating. […] Free Ca^2+ concentrations were calculated with MaxChelator assuming a temperature of 25° C., a pH of 7.2 and an ionic strength of 160 mM. To reduce contaminating currents from native chloride channels in COS-7 cells, KCa2.3 currents were recorded with an internal pipette solution containing (in mM): 145 K^+ aspartate, 2 MgCl2, 10 HEPES, 10 EGTA and 7.4 CaCl2 (500 nM free Ca^2+), pH 7.2, 290-310 mOsm. […] KV2.1, Kv1.3, and KV3.1 currents were recorded in normal Ringer solution with a Ca^2+-free KF-based pipette solution as previously described (Schmitz et al., 2005). HERG (KV11.1) currents were recorded with a 2-step pulse from −80 mV first to 20 mV for 1 sec and then to −50 mV for 1 sec. […]

[1] = Pharmacokinetics in mice (UPLC/MS); format: in vivo, mouse; set-up: distribution from blood into tissue / oral availability: dose or concentration left out as unconfirmed; conditions: for half-life: iv, 10 mg/kg i.v.
Excerpt: Pharmacokinetics. Twelve week-old male C57BI/6Jmice were purchased from Charles River Laboratories (Wilmington, Mass.) and housed in microisolator cages with rodent chow and autoclaved water ad libitum. All experiments were in accordance with National Institutes of Health guidelines and approved by the University of California, Davis, Institutional Animal Care and Use Committee. […] At various time points after the injection blood was collected into EDTA blood sample collection tubes either from the saphenous vein or by cardiac puncture under deep isoflurane anesthesia. Following the cardiac puncture mice were sacrificed by cutting the heart and then the brain was removed. Individual mice were typically used for 3 times points (2 blood collections from the saphenous vein plus the terminal blood collection). Plasma was separated by centrifugation and plasma and brain samples were stored at −80 °C pending analysis. Brain samples were homogenized in 1 ml of H2O with a Brinkman Kinematica PT 1600E homogenizer and the protein precipitated with 1 ml of acetonitrile. The samples were then centrifuged at 3000 rpm and supernatants concentrated to 1 ml. Plasma and homogenized brain samples were purified using C18 solid phase extraction cartridges (ThermoFisher Scientific, Waltham, Mass., USA) preconditioned with acetonitrile followed by 1 ml of water. The loaded column was washed with 2 ml of water. […] Eluted fractions were dried under nitrogen and reconstituted in acetonitrile. LC/MS analysis was performed with a Waters Acquity UPLC (Waters, New York, N.Y.) equipped with a Acquity UPLC BEH 1.7 μm RP-18 column (Waters, New York, N.Y.) interfaced to a TSQ Quantum Access Max mass spectrometer (MS) (ThermoFisher Scientific, Waltham, Mass., USA). The isocratic mobile phase consisted of 80% acetonitrile and 20% water, both containing 0.1% formic acid with a flow rate of 0.25 ml/min.

hNaV1.5 = molecular target: T3, hNaV1.5 (Homo sapiens, UniProt Q14524); assay: NaV1.5 current inhibition (HEK-293); format: cell-based; conditions: HEK293
T3 construct: host or cells: HEK-293

hKV2.1 = molecular target: T4, hKV2.1 (Homo sapiens, UniProt Q14721); assay: KV2.1 current inhibition (HEK293); format: cell-based
T4 construct: host or cells: HEK293
T4 sequence (Q14721 whole entry): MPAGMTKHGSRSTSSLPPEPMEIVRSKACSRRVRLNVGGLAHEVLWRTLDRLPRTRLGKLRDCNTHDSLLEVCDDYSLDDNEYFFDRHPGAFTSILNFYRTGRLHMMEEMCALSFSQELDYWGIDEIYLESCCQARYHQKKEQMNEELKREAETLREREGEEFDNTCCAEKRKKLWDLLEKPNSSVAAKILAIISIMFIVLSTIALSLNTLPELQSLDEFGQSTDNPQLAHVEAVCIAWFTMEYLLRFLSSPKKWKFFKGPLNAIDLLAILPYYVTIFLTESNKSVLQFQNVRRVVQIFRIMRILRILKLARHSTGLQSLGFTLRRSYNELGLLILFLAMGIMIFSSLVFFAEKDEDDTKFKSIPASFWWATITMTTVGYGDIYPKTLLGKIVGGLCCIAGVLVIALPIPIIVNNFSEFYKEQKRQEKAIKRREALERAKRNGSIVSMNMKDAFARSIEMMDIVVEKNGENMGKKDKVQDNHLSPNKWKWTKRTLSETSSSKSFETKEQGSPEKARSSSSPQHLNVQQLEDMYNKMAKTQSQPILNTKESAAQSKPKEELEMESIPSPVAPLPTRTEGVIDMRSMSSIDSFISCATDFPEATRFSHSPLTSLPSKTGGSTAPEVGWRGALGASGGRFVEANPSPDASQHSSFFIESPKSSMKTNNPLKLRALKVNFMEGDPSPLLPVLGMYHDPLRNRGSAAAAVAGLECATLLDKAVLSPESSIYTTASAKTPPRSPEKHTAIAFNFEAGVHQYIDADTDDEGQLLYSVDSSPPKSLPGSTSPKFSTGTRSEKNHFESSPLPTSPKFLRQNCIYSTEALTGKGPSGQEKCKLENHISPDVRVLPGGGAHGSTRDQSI
Excerpt: as §1, §2

hCaV1.2 = molecular target: T5, hCaV1.2 (Homo sapiens, UniProt Q13936); assay: CaV1.2 current inhibition (HEK-293); format: cell-based; conditions: HEK293
T5 construct: host or cells: HEK-293
T5 sequence (Q13936 whole entry): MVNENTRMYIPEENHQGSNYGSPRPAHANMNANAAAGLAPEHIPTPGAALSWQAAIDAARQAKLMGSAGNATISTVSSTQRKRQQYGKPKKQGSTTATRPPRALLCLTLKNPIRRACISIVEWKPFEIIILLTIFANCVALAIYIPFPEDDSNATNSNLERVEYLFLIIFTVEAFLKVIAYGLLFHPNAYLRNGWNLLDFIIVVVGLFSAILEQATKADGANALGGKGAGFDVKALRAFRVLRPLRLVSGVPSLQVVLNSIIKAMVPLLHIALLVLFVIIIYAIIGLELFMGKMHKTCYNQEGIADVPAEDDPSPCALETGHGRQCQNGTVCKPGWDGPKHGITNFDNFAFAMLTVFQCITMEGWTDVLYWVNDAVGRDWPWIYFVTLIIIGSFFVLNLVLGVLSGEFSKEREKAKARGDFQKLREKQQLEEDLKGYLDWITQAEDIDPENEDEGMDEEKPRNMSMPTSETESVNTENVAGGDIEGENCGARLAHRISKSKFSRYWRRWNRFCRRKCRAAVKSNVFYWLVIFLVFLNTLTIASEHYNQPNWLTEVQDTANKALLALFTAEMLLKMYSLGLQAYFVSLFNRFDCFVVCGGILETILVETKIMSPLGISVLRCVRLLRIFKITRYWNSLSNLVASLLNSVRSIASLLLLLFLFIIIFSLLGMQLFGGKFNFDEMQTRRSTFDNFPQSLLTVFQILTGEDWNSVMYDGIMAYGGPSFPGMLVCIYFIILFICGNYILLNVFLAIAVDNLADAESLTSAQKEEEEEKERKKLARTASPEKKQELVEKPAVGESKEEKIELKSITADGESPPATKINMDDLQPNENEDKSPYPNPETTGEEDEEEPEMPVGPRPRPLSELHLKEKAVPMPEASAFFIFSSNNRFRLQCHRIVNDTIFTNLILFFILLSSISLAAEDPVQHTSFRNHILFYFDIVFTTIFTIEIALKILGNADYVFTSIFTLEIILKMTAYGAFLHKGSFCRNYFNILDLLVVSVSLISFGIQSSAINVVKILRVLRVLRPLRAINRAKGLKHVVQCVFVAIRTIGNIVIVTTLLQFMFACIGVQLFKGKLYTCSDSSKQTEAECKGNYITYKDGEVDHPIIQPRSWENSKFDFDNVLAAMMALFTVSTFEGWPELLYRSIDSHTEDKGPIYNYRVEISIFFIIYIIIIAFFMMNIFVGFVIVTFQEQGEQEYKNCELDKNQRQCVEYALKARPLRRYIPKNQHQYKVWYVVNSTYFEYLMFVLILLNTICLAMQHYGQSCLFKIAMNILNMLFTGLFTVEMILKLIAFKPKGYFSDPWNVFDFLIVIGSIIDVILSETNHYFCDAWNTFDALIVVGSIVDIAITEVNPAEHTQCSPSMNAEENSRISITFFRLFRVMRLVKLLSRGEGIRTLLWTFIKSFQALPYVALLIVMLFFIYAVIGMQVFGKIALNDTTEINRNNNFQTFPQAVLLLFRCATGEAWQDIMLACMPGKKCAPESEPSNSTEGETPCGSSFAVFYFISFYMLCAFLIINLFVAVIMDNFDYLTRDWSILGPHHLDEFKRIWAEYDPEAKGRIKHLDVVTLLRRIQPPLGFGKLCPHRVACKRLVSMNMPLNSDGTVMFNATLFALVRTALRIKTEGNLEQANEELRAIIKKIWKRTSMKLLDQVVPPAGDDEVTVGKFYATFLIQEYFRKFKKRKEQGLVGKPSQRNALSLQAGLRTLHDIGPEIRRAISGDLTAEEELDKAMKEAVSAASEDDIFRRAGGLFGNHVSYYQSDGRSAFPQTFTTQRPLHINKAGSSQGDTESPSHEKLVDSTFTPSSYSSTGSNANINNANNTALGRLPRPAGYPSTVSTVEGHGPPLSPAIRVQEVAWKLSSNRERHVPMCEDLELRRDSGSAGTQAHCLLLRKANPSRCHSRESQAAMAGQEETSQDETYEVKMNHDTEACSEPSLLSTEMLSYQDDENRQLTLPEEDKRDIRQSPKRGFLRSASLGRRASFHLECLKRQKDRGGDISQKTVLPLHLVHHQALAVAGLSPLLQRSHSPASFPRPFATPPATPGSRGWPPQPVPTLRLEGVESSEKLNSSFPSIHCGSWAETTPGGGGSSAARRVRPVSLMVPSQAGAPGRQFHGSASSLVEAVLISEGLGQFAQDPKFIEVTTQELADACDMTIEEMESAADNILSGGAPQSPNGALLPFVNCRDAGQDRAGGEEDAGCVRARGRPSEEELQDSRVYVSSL

hNaV1.4 = molecular target: T6, hNaV1.4 (Homo sapiens, UniProt P35499); assay: NaV1.4 current inhibition (HEK-293); format: cell-based; conditions: HEK293
T6 construct: host or cells: HEK-293
T6 sequence (P35499 whole entry): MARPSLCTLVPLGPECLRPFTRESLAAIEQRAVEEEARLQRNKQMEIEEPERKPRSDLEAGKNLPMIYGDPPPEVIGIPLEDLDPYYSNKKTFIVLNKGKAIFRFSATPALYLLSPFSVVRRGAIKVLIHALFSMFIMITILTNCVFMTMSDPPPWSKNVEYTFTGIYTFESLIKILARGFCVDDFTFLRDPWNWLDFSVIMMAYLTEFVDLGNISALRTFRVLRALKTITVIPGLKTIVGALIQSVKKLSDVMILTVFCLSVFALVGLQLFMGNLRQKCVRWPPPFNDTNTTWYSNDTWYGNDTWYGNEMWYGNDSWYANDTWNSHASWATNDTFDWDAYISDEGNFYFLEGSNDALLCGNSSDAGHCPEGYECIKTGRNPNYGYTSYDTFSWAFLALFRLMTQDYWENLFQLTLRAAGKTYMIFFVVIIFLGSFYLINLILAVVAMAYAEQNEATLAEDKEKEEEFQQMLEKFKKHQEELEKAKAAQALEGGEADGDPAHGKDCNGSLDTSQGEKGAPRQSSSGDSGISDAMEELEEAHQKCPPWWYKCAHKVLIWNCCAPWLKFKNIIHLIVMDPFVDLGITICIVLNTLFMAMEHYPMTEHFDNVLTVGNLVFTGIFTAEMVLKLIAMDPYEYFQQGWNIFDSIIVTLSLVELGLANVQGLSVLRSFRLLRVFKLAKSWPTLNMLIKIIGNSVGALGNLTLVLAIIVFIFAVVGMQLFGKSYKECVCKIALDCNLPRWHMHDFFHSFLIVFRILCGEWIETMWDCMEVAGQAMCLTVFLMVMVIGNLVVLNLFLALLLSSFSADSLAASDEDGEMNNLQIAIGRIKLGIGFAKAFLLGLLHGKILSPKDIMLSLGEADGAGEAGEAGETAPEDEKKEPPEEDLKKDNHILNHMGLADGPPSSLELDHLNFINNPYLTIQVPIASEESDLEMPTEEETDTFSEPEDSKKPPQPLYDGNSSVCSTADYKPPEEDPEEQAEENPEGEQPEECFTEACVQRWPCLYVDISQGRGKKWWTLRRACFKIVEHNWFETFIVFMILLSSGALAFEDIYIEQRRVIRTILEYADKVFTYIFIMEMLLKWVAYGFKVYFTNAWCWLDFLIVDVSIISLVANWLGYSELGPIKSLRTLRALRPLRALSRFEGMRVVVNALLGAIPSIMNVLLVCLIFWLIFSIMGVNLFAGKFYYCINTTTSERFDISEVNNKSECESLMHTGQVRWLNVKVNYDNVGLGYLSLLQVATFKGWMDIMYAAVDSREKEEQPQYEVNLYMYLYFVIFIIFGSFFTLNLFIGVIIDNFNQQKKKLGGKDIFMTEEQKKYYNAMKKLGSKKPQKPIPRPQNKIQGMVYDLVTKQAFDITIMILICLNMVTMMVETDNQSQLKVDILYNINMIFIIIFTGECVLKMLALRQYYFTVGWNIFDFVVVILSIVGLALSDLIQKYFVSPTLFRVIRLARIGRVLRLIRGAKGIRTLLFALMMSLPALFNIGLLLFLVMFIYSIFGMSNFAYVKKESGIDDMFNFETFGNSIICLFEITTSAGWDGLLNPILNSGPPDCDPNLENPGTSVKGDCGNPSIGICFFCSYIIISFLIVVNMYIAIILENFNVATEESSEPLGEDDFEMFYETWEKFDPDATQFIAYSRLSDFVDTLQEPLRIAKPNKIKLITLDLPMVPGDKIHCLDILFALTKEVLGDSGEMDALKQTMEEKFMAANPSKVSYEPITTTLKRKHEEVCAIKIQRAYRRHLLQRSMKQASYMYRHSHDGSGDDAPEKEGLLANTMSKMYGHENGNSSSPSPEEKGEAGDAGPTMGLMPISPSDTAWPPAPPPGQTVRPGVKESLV

Cc1cc2nc(N)oc2c2ccccc12 [SKA-121, 5-Methylnaphtho[2,1-d]oxazol-2-amine]
inhibition at 50 µM (hNaV1.7; at 50 μM): 28.5 ± 1.8%
inhibition at 50 µM (mKV1.3; at 50 μM): 27.5 ± 7.2%
oral availability ([1]; […] mg/kg oral vs i.v., mice): roughly 25%
concentration at 1 h ([1]; male, C57Bl/6J, mouse, plasma, 10 mg/kg, […] mg/kg oral, mice, read-out: plasma level at 1 h after oral administration): 1100 ± 100 nM
concentration at 8 h ([1]; male, C57Bl/6J, mouse, plasma, 10 mg/kg, […] mg/kg oral, mice, read-out: plasma level at 8 h after oral administration): 27 ± 5 nM
concentration at 5 min ([1]; male, C57Bl/6J, mouse, plasma, intravenous, 10 mg/kg, […] mg/kg i.v., mice, read-out: total plasma concentration at 5 min): 21300 ± 2400 nM
concentration at 1 h ([1]; male, C57Bl/6J, mouse, plasma, intravenous, 10 mg/kg, […] mg/kg i.v., mice, read-out: total plasma concentration at 1 h): 483 ± 231 nM
concentration at 4 h ([1]; male, C57Bl/6J, mouse, plasma, intravenous, 10 mg/kg, […] mg/kg i.v., mice, read-out: total plasma concentration at 4 h): 53 ± 44 nM
half-life ([1]; male, C57Bl/6J, mouse, plasma, 10 mg/kg, mice, read-out: half-life): ~0.333 h
Kp ([1]; male, C57Bl/6J, mouse, mice, averaged paired brain and plasma samples, read-out: brain/plasma ratio): 3.3 ± 2.9
inhibition at 50 µM (hNaV1.5; at 50 μM): 32.1 ± 11.1%
inhibition at 50 µM (hKV2.1; at 50 μM): 43.2 ± 12.5%
inhibition at 50 µM (hCaV1.2; at 50 μM): 48.9 ± 2.7%
inhibition at 50 µM (hNaV1.4; at 50 μM): 25.7 ± 1.3%

Cc1cc2sc(N)nc2c2ccccc12 [SKA-111, 5-methylnaphtho[1,2-d]thiazol-2-amine]
inhibition at 25 µM (hNaV1.7; at 25 μM): 27.5 ± 0.9%
inhibition at 25 µM (mKV1.3; at 25 μM): 28.5 ± 2.3%
distribution from blood into tissue ([1]; […] mg/kg i.v., mice): ~2 min
total brain concentrations probably achieved ([1]; i.p. 100 mg/kg, for hours): 10 to 30 µM
half-life ([1]; male, C57Bl/6J, mouse, plasma, 10 mg/kg, mice, read-out: elimination half-life (converted)): 4.7 ± 0.6 h
inhibition at 25 µM (hNaV1.5; at 25 μM): 39.9 ± 11.1%
inhibition at 25 µM (hKV2.1; at 25 μM): 37.3 ± 9%
inhibition at 25 µM (hCaV1.2; at 25 μM): 49.5 ± 17%
inhibition at 25 µM (hNaV1.4; at 25 μM): 33.4 ± 10.5%
